Molecular target: T1, TLR9 (Homo sapiens, UniProt Q9NR96)
T1 sequence (Q9NR96 26-1032): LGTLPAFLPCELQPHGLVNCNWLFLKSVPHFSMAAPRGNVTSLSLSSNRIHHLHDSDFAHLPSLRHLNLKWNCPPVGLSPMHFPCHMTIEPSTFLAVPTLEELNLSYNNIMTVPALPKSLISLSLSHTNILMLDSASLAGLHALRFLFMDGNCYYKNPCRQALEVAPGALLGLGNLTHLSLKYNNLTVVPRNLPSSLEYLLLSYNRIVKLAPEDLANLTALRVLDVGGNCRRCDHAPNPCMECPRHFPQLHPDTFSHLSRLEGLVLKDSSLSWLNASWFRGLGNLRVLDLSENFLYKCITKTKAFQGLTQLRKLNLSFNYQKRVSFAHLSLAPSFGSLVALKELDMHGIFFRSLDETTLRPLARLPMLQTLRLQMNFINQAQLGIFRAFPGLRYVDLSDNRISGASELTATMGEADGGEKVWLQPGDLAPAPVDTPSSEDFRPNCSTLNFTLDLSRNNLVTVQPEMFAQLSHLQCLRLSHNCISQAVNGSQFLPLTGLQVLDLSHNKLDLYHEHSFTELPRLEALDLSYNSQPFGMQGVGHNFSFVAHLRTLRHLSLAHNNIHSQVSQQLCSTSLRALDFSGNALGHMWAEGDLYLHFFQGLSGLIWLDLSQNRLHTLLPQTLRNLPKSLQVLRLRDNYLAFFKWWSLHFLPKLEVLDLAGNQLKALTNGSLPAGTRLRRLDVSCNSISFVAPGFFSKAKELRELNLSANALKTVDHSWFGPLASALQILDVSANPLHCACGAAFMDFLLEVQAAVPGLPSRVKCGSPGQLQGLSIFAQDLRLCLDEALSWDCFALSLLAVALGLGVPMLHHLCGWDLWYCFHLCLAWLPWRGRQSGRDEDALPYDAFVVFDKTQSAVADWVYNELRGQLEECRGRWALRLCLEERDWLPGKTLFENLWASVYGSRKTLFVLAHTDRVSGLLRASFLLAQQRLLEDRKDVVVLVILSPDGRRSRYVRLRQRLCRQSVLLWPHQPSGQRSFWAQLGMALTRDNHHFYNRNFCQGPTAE
Assay: HEK293-Blue-hTLR-9 cells assay (SEAP reporter, ODN2006 stimulation)
Format: cell-based
Parameters: host or cells: HEK293 (HEK-Blue hTLR9)
Conditions: HEK293-Blue-hTLR9 cells, ODN2006, 20 hrs; read-out: HEK/hTLR9 IC50
Outline: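 Antagonist format: cells in DMEM/10% FBS exposed to serially diluted compound (1% DMSO) plus ODN2006 stimulation for 20 h at 37°C. Supernatant SEAP measured with QUANTI-Blue substrate, 2 h at 37°C, absorbance 620–655 nm.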

Structure (SMILES) | IC50
C[C@H]1CN(c2ccnc3c2cnn3C)Cc2ccc(N3CCNCC3)nc21 [Example 62, (8S)-8-methyl-6-(1-methylpyrazolo[3,4-b]pyridin-4-yl)-2-piperazin-1-yl-7,8-dihydro-5H-1,6-naphthyridine] | 264 nM
CO[C@@H]1CN(c2ccc3c(n2)[C@@H](C)CN(c2cc(C)nc4c2cnn4C)C3)C[C@H]1N [Example 63, (3R,4R)-4-methoxy-1-[(8S)-6-(1,6-dimethylpyrazolo[3,4-b]pyridin-4-yl)-8-methyl-7,8-dihydro-5H-1,6-naphthyridin-2-yl]pyrrolidin-3-amine] | 236 nM
Cc1cc(N2Cc3ccc(OC4CCNCC4)nc3[C@@H](C)C2)c2cnn(C)c2n1 [Example 64, (8S)-6-(1,6-dimethylpyrazolo[3,4-b]pyridin-4-yl)-8-methyl-2-(4-piperidyloxy)-7,8-dihydro-5H-1,6-naphthyridine] | 249 nM
Cc1cc(N2Cc3ccc(N4CCN(C)CC4)nc3[C@@H](C)C2)c2cnn(C)c2n1 [Example 67, (8S)-6-(1,6-dimethylpyrazolo[3,4-b]pyridin-4-yl)-8-methyl-2-(4-methylpiperazin-1-yl)-7,8-dihydro-5H-1,6-naphthyridine] | 282 nM
Cc1cc(N2Cc3ccc(N4CC5(CNCCO5)C4)nc3[C@@H](C)C2)c2cnn(C)c2n1 [Example 68, 2-[(8S)-6-(1,6-dimethylpyrazolo[3,4-b]pyridin-4-yl)-8-methyl-7,8-dihydro-5H-1,6-naphthyridin-2-yl]-5-oxa-2,8-diazaspiro[3.5]nonane] | 332 nM
Cc1cc(N2Cc3ccc(N4C[C@@H](F)[C@@H](N)C4)nc3[C@@H](C)C2)c2cnn(C)c2n1 [Example 69, (3S,4R)-4-fluoro-1-[(8S)-6-(1,6-dimethylpyrazolo[3,4-b]pyridin-4-yl)-8-methyl-7,8-dihydro-5H-1,6-naphthyridin-2-yl]pyrrolidin-3-amine] | 488 nM
Cc1cc(N2Cc3ccc(N4CCOC5(CNC5)C4)nc3[C@@H](C)C2)c2cnn(C)c2n1 [Example 70, 8-[(8S)-6-(1,6-dimethylpyrazolo[3,4-b]pyridin-4-yl)-8-methyl-7,8-dihydro-5H-1,6-naphthyridin-2-yl]-5-oxa-2,8-diazaspiro[3.5]nonane] | 300 nM
Cc1cc(N2Cc3ccc(N4CCNCC4)nc3[C@H](C)C2)c2cnn(C)c2n1 [Example 72, (8R)-6-(1,6-dimethylpyrazolo[3,4-b]pyridin-4-yl)-8-methyl-2-piperazin-1-yl-7,8-dihydro-5H-1,6-naphthyridine] | 113 nM
Cc1cc(N2Cc3cnc(N4CCNCC4)cc3[C@@H](C)C2)c2cnn(C)c2n1 [Example 74, (4R)-2-(1,6-dimethylpyrazolo[3,4-b]pyridin-4-yl)-4-methyl-6-piperazin-1-yl-3,4-dihydro-1H-2,7-naphthyridine] | 165 nM
Cc1cc(N2Cc3cnc(OCCN4CCNCC4)cc3[C@@H](C)C2)c2cnn(C)c2n1 [Example 77, (4R)-2-(1,6-dimethylpyrazolo[3,4-b]pyridin-4-yl)-4-methyl-6-(2-piperazin-1-ylethoxy)-3,4-dihydro-1H-2,7-naphthyridine] | 144 nM
Cc1cc(N2Cc3cnc(N4CC5(CNCCO5)C4)cc3[C@@H](C)C2)c2cnn(C)c2n1 [Example 79, 2-[(5R)-7-(1,6-dimethylpyrazolo[3,4-b]pyridin-4-yl)-5-methyl-6,8-dihydro-5H-2,7-naphthyridin-3-yl]-5-oxa-2,8-diazaspiro[3.5]nonane] | 131 nM
Cc1cc(N2Cc3cnc(N4CC[C@@H](N)[C@H](F)C4)cc3[C@@H](C)C2)c2cnn(C)c2n1 [Example 80, (3R,4R)-3-fluoro-1-[(5R)-7-(1,6-dimethylpyrazolo[3,4-b]pyridin-4-yl)-5-methyl-6,8-dihydro-5H-2,7-naphthyridin-3-yl]piperidin-4-amine] | 73 nM

Further compounds by falling IC50, results first:

IC50 | Structure (SMILES)
335 nM | CO[C@@H]1CN(c2cc3c(cn2)CN(c2cc(C)nc4c2cnn4C)C[C@@H]3C)C[C@H]1N [Example 78, (3R,4R)-4-methoxy-1-[(5R)-7-(1,6-dimethylpyrazolo[3,4-b]pyridin-4-yl)-5-methyl-6,8-dihydro-5H-2,7-naphthyridin-3-yl]pyrrolidin-3-amine]
218 nM | COC[C@H]1CN(c2cc3c(cn2)CN(c2cc(C)nc4c2cnn4C)C[C@@H]3C)CCN1 [Example 81, (4R)-2-(1,6-dimethylpyrazolo[3,4-b]pyridin-4-yl)-4-methyl-6-[(3R)-3-(methoxymethyl)piperazin-1-yl]-3,4-dihydro-1H-2,7-naphthyridine]
144 nM | Cc1cc(N2Cc3cnc(O[C@@H]4C[C@H]5CNCCN5C4)cc3[C@@H](C)C2)c2cnn(C)c2n1 [Example 76, (4R)-2-(1,6-dimethylpyrazolo[3,4-b]pyridin-4-yl)-4-methyl-6-[[(7R,8aS)-1,2,3,4,6,7,8,8a-octahydropyrrolo[1,2-a]pyrazin-7-yl]oxy]-3,4-dihydro-1H-2,7-naphthyridine]
132 nM | Cc1cc(N2Cc3ccc(N4CCNCC4)nc3[C@@H](C)C2)c2cnn(C)c2n1 [Example 66, (8S)-6-(1,6-dimethylpyrazolo[3,4-b]pyridin-4-yl)-8-methyl-2-piperazin-1-yl-7,8-dihydro-5H-1,6-naphthyridine]
115 nM | CO[C@H]1CN(c2cc3c(cn2)CN(c2cc(C)nc4c2cnn4C)C[C@@H]3C)CC[C@@H]1N [Example 73, (3S,4S)-3-methoxy-1-[(5R)-7-(1,6-dimethylpyrazolo[3,4-b]pyridin-4-yl)-5-methyl-6,8-dihydro-5H-2,7-naphthyridin-3-yl]piperidin-4-amine]
115 nM | Cc1cc(N2Cc3cnc(N4CCNC5(CC5)C4)cc3[C@@H](C)C2)c2cnn(C)c2n1 [Example 75, (4R)-6-(4,7-diazaspiro[2.5]octan-7-yl)-2-(1,6-dimethylpyrazolo[3,4-b]pyridin-4-yl)-4-methyl-3,4-dihydro-1H-2,7-naphthyridine]
106 nM | CO[C@H]1CN(c2ccc3c(n2)[C@@H](C)CN(c2cc(C)nc4c2cnn4C)C3)CC[C@@H]1N [Example 65, (3S,4S)-3-methoxy-1-[(8S)-6-(1,6-dimethylpyrazolo[3,4-b]pyridin-4-yl)-8-methyl-7,8-dihydro-5H-1,6-naphthyridin-2-yl]piperidin-4-amine]

— patent US20240317735A1, “HYDROISOQUINOLINE OR HYDRONAPHTHYRIDINE COMPOUNDS FOR THE TREATMENT OF AUTOIMMUNE DISEASE” (Hoffmann-La Roche Inc., priority 2020, published 2024)
